Two compounds from US20080214576A1, “Topoisomerase Inhibitors and Prodrugs” (Threshold Pharmaceuticals, Inc., priority 2004, published 2008) can be followed below.

Broadly, the GI50 is the concentration giving 50% growth inhibition.

Where two headings read alike, the source gives them in different places.

The test system of this assay is H460 cells. In words: Antiproliferation assay (multi-well Alamar Blue based). The format is cell-based, human. As to the method:
To determine the effect of the compounds of the invention on cell proliferation, the antiproliferative activity of these compounds was tested in a multi-well Alamar Blue based assay (at 2 h and 3 days). Cell growth in the presence and absence of the test compound was compared, as measured by a fluorescence plate reader at excitation 550 nm and emission 590 nm (see Biosource International Inc., Tech Application Notes, Use of Alamar Blue in the measurement of Cell Viability and Toxicity, Determining IC50). […] After 24 hours, these plates were divided into 3 groups—Control group, 2 h treatment group, and 3 day treatment group. A test compound was added to each plate in the treatment groups (2 h and 3 day) at various concentration (in 50 μl of medium). In the 2 h treatment group, after 2 h the cells were rinsed to remove the test compound and incubated for 3 days, followed by staining with AlamarBlue. The cells in the 3 day treatment group were incubated for 3 days, followed by staining with AlamarBlue. In the Control group, AlamarBlue was added to the plate at (i) day 0 and (ii) day 3 and measured to establish the control reading.
(In general: Resazurin is reduced to fluorescent resorufin, in cell work by metabolically active cells.)

In the case of `COc1cc2c(cc1OC)-c1nc3cc4c(cc3n1C(CCCN(C)C)N2)OCO4` (stereo not shown) [Compound 7], under “assay time period not stated”, the GI50 entry was “not determinable” and the GI90 result is reported as “not determinable”.

Turning to `COc1cc2c(cc1OC)n(CCN(C)C)c(=O)n1c3cc4c(cc3nc21)OCO4` [Compound 14], the GI90 (3 day treatment, AlamarBlue, GI90 also referred to as IC90) stood at 1000 nM. In addition, the concentration for 50% growth inhibition (GI50) (Homo sapiens, NCI-H460, 72 h, 3 day treatment, AlamarBlue, GI50 also referred to as IC50, read-out: GI50) stood at 600 nM.
